Source: paper PMC10126264, “Synergistic effect and antibiofilm activity of the antimicrobial peptide K11 with conventional antibiotics against multidrug-resistant and extensively drug-resistant Klebsiella pneumoniae” (Frontiers in Cellular and Infection Microbiology, 2023)
Converted amounts (≈) assume the structure as drawn. Like-named read-outs stand apart in the source and are kept apart here.

Tests used:
[1] = tested on: K. pneumoniae ATCC BAA-1706; format: cell-based, Klebsiella pneumoniae; conditions: compared to day 1
Procedure: The resistance development of K11, ciprofloxacin, and colistin was assessed according to the previously described protocol ([Pollard et al., 2012]). Briefly, MIC values for a K. pneumoniae ATCC BAA-1706 were first examined and recorded. […] This inoculum was subjected to another MIC assay. […] The process was repeated for 30 passages. The MIC values for K11 and antibiotics were recorded and plotted as the MIC fold change compared to day 1 of the experiment.

[2] = tested on: MDR/XDR K. pneumoniae clinical isolates; assay: Antimicrobial susceptibility testing, disk diffusion (CLSI); format: cell-based, Klebsiella pneumoniae; conditions: all fifteen isolates, CLSI guidelines
Procedure: (§1) In this study, fifteen non-duplicate clinical isolates of MDR/XDR K. pneumoniae were obtained from the bacterial repository of the Division of Infectious Diseases and Tropical Medicine, Department of Medicine, Faculty of Medicine Siriraj Hospital, Mahidol University. […] Antimicrobial susceptibility testing was also carried out by the disk diffusion method according to CLSI guidelines ([Clinical and Laboratory Standards Institute, 2021]). Furthermore, all isolates were tested for colistin resistance by broth microdilution based on CLSI recommendations. […] The MDR bacteria was defined as bacteria that are resistant to at least one agent in three or more antimicrobial categories, while the XDR bacteria refer to bacteria that are resistant to at least one agent in all but two or fewer antimicrobial categories based on laboratory results. E. coli ATCC 25922 was used as a reference control strain for susceptibility testing. Other reference strains, including K. pneumoniae ATCC 70063 and K. pneumoniae ATCC BAA-1706 (bla KPC […]), were used as control strains throughout the study.

[3] = tested on: MDR/XDR K. pneumoniae clinical isolates; assay: microbe, parasite or virus in culture; conditions: Klebsiella pneumoniae
Procedure: The ability of K11 to inhibit bacterial growth was determined by the broth microdilution method ([Clinical and Laboratory Standards Institute, 2018]). Briefly, a series of 2-fold dilutions of K11 were prepared from 1,024 to 2 µg/mL in cation-adjusted Mueller-Hinton broth (CAMHB), Then 50 µL of each peptide dilution was added to each well of polystyrene 96-well U-bottom microplates. The log-phase cultures were adjusted to 0.5 McFarland standard and diluted 1:100 in CAMHB to provide the density of 10^6 CFU/mL. Consequently, 50 µL of diluted bacterial suspension was added to wells containing 50 µL of peptide solution, followed by incubation for 20-24 h at 37°C. […] To evaluate MBC, a volume of 10 μL was taken from each well with no visible growth, inoculated on Mueller-Hinton agar (MHA) plates, and incubated at 37°C. The MBC was defined as the lowest concentration of antimicrobials that killed at least 99.9% of the initial inoculums ([Clinical and Laboratory Standards Institute, 1999]).

[4] = ref Witherell et al., 2021; cited from earlier work
Source text: K11 is a synthetic peptide derived from natural AMPs (cecropin A1, melittin, and maganin 2), composed of 20 amino acids ([…]-NH2). […] Moreover, K11 has also been successfully used in vivo as a topic hydrogel solution against Acinetobacter baumannii-infected wounds ([Rishi et al., 2018]).

[5] = tested on: MDR/XDR K. pneumoniae clinical isolates; assay: Colistin MIC, broth microdilution (CLSI); format: cell-based, Klebsiella pneumoniae; conditions: all fifteen isolates, resistance defined as MIC ≥4 µg/mL
Procedure: as §1

Molecule | antimicrobial susceptibility profile [2] | further results
O=C(O)c1cn(C2CC2)c2cc(N3CCNCC3)c(F)cc2c1=O [ciprofloxacin] |  | MIC fold change ([1]; after 7 serial passages at 0.5×MIC): 16 fold; MIC fold change ([1]; after 12 passages at 0.5×MIC, maintained until 30 passages): 64 fold
C[C@@H](O)[C@H]1C(=O)N2C(C(=O)O)=C(S[C@@H]3CN[C@H](C(=O)Nc4cccc(C(=O)O)c4)C3)[C@H](C)[C@H]12 [ertapenem] | resistant | 
CO/N=C(\C(=O)N[C@@H]1C(=O)N2C(C(=O)[O-])=C(C[N+]3(C)CCCC3)CS[C@H]12)c1csc(N)n1 [cefepime] | resistant | 
O=C(N[C@H](CO)[C@H](O)c1ccc([N+](=O)[O-])cc1)C(Cl)Cl [chloramphenicol] | resistant | MIC [3]: 16 µg/mL (≈ 49.5 µM)
CO[C@@]1(NC(=O)Cc2cccs2)C(=O)N2C(C(=O)O)=C(COC(N)=O)CS[C@@H]21 [cefoxitin] | resistant | 
colistin [reference compound] |  | concentration showing significant hemolytic activity [4]: more than 100 μg/mL; MICs, all isolates [5]: ≥ 4 µg/mL
C[C@H]1[C@H](NC(=O)/C(=N\OC(C)(C)C(=O)O)c2csc(N)n2)C(=O)N1S(=O)(=O)O [aztreonam] | resistant | 
C[C@@H](O)[C@H]1C(=O)N2C(C(=O)O)=C(S[C@@H]3CN[C@H](C(=O)N(C)C)C3)[C@H](C)[C@H]12 [meropenem, reference compound] |  | MIC [3]: 64 µg/mL (≈ 167 µM)
CO[C@H]1/C=C/O[C@@]2(C)Oc3c(C)c(O)c4c(O)c(c(/C=N/N5CCN(C)CC5)c(O)c4c3C2=O)NC(=O)/C(C)=C\C=C\[C@H](C)[C@H](O)[C@@H](C)[C@@H](O)[C@@H](C)[C@H](OC(C)=O)[C@@H]1C [rifampicin] |  | MIC [3]: 32 µg/mL (≈ 38.9 µM)
CO/N=C(\C(=O)N[C@@H]1C(=O)N2C(C(=O)O)=C(CSc3nc(=O)c(=O)[nH]n3C)CS[C@H]12)c1csc(N)n1 [ceftriaxone] | resistant | 
CC(C)(O/N=C(\C(=O)N[C@@H]1C(=O)N2C(C(=O)[O-])=C(C[n+]3ccccc3)CS[C@H]12)c1csc(N)n1)C(=O)O [ceftazidime] | resistant | 
